Test results as given in publication PMC10590419, “Structural and mechanistic insights into the inhibition of respiratory syncytial virus polymerase by a non-nucleoside inhibitor” (Communications Biology, 2023).
Values joined by “and” are separate entries in the source; they are usually repeats but may differ in a detail not shown here. Equal entries are not always repeated.

How the values were obtained:
[1] = biological target: T1, RSV L+P complex (Human respiratory syncytial virus A, UniProt P28887); type: biochemical
T1 sequence (P03421 whole entry): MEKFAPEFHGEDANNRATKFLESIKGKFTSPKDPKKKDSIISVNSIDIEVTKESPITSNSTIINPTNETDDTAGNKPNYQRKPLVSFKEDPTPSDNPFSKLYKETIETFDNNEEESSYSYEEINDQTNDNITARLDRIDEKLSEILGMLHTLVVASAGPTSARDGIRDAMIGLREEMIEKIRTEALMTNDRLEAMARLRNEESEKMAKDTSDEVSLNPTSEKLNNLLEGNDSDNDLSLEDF
T1 sequence (P28887 whole entry): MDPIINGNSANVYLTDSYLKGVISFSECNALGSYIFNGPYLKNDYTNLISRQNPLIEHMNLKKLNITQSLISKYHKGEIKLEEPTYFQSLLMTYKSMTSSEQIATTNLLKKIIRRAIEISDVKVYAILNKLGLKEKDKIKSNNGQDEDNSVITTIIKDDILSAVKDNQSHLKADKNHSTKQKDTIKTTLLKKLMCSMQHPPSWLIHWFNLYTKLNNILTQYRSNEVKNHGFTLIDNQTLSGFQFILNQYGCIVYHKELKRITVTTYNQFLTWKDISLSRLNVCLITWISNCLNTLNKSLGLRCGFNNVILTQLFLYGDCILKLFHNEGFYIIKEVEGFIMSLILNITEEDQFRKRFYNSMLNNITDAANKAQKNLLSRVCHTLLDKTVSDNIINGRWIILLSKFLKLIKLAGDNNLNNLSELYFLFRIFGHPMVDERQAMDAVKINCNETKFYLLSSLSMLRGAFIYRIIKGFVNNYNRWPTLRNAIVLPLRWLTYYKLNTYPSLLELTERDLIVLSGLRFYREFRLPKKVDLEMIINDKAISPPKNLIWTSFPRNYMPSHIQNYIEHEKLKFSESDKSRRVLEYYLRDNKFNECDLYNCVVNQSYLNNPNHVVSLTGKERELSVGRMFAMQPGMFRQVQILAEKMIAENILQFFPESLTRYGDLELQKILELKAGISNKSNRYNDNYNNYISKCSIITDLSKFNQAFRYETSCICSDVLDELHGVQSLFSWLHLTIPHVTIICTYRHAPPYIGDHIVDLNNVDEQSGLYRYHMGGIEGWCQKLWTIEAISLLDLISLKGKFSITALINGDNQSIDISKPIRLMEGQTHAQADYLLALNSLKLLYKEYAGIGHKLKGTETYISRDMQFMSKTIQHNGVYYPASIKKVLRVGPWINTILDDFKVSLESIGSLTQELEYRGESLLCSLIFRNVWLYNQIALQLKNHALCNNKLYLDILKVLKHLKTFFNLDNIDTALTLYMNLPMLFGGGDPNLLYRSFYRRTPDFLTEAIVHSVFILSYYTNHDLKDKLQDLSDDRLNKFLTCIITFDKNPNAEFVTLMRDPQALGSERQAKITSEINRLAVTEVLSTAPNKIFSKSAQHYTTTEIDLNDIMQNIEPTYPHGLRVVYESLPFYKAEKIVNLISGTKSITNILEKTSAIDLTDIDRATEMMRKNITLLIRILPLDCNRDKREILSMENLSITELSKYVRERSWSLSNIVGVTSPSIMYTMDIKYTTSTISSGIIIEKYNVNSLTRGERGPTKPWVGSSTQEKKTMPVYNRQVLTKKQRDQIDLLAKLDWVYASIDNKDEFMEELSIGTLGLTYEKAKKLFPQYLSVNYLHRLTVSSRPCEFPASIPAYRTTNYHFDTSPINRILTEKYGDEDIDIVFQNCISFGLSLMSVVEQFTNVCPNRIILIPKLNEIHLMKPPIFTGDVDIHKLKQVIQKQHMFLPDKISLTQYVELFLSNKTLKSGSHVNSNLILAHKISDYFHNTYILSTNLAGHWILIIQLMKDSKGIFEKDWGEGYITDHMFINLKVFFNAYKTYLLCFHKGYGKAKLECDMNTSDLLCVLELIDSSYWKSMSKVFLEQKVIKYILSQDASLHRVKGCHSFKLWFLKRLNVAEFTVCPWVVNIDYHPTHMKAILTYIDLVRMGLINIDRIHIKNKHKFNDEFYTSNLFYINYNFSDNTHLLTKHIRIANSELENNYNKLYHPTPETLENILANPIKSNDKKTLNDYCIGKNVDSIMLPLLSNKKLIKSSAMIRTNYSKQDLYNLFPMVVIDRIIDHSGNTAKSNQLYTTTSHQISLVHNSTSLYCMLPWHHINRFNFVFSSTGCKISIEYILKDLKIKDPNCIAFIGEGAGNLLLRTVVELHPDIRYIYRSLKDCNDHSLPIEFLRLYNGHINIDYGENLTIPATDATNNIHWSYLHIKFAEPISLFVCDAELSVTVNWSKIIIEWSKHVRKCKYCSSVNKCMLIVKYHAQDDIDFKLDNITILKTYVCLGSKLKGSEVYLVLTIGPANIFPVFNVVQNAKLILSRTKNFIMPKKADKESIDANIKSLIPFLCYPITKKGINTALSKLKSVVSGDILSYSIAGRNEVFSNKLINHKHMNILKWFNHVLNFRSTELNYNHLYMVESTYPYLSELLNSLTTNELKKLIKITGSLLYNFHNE

[2] = biological target: RSV MTase-CTD protein (Human respiratory syncytial virus A, UniProt P28887); test: Methyltransferase filter-binding assay; type: biochemical; settings: three technical replicates
Sequence of RSV MTase-CTD protein (P28887 1755-2165): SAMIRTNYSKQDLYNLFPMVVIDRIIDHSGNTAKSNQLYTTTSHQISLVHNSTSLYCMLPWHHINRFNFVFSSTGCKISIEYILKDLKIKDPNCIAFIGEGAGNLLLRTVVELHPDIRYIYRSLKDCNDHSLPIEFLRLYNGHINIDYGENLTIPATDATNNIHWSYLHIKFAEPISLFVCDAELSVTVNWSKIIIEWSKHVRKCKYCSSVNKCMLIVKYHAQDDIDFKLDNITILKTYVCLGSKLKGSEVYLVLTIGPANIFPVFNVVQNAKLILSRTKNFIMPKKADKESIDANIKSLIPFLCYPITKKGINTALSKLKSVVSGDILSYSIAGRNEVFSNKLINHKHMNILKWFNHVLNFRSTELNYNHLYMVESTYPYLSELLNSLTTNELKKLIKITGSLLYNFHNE

[3] = biological target: T1, RSV L+P complex; test: Surface plasmon resonance assay; type: binding, Human RSV (strain A2); settings: SPR, top concentration 1 mM

## O=C(NC1CC1)c1cc2c(s1)-c1ccccc1N(C(=O)c1ccc(NC(=O)c3cccnc3N3CCC4(CC3)COC4)cc1)CC2 [AZ-27, reference compound]
[1]
  MTase activity, RNA+compound+RSV L+P, CPM: 10786 CPM and 11483 CPM and 10556 CPM and 15234 CPM and 15171 CPM and 17548 CPM
[2]; 50 uM
  MTase activity, RNA+compound+RSV MTase-CTD, CPM: 28343 CPM and 26589 CPM and 27119 CPM
[2]; 200 uM
  MTase activity, RNA+compound+RSV MTase-CTD, CPM: 32944 CPM and 32511 CPM and 35155 CPM

## Nc1nc2c(ncn2[C@@H]2O[C@H](COP(=O)(O)OP(=O)(O)O)[C@@H](O)[C@H]2O)c(=O)[nH]1 [GDP, guanosine diphosphate]
[3]
  binding to purified RSV L+P (in words): did not bind
